Data from publication PMC8699473, “An Easily Expandable Multi-Drug LC-MS Assay for the Simultaneous Quantification of 57 Oral Antitumor Drugs in Human Plasma” (Cancers, 2021).

Experiments:
[1] = Freeze-thaw stability in spiked pooled human plasma; format: physicochemical
[2] = Autosampler stability of ready for injection samples; format: physicochemical, human
[3] = Long-term stability in spiked pooled human plasma
[4] = set-up: method as in supplement references [1-55] as printed per drug; settings: minimum steady-state blood plasma concentration after multiple dose administration; ref supplement references [1-55] per drug; cited from earlier work
[5] = Short-term stability in spiked pooled human plasma (bench-top, 4 °C, 56 °C)

In the case of `CCc1cc2c(cc1N1CCC(N3CCOCC3)CC1)C(C)(C)c1[nH]c3cc(C#N)ccc3c1C2=O` [Alectinib], the “Freeze-Thaw Accuracy [%]” value ([1]; validation standard 2xLLOV) is reported as 100.0%, the “Freeze-Thaw Accuracy [%]” value ([1]; validation standard LLOV) is reported as 91.2% and the “Freeze-Thaw Accuracy [%]” value ([1]; validation standard MOV) is reported as 101.2%. The “Freeze-Thaw Accuracy [%]” value ([1]; validation standard ULOV) was 96.5%, the “Autosampler (24h, 4°C) Accuracy [%]” value ([2]; validation standard 2xLLOV) was 99.6% and the “Autosampler (72h, 4°C) Accuracy [%]” value ([2]; validation standard 2xLLOV) was 102.6%. The “Autosampler (24h, 4°C) Accuracy [%]” value ([2]; validation standard LLOV) was 91.8%, the “Autosampler (72h, 4°C) Accuracy [%]” value ([2]; validation standard LLOV) was 93.7% and the “Autosampler (24h, 4°C) Accuracy [%]” value ([2]; validation standard MOV) was 104.1%. For the same molecule, the “Autosampler (72h, 4°C) Accuracy [%]” value ([2]; validation standard MOV) was 104.1%, the “Autosampler (24h, 4°C) Accuracy [%]” value ([2]; validation standard ULOV) was 99.3% and the “Autosampler (72h, 4°C) Accuracy [%]” value ([2]; validation standard ULOV) was 100.6%. The “Long-term stability, 1 month, -20°C Accuracy [%]” value ([3]; validation standard 2xLLOV) was 87.1%, the “Long-term stability, 1 month, -80°C Accuracy [%]” value ([3]; validation standard 2xLLOV) was 83.3% and the “Long-term stability, 2 month, -20°C Accuracy [%]” value ([3]; validation standard 2xLLOV) was 86.4%. For the same molecule, the “Long-term stability, 2 month, -80°C Accuracy [%]” value ([3]; validation standard 2xLLOV) was 86.9%, the “Long-term stability, 3 month, -20°C Accuracy [%]” value ([3]; validation standard 2xLLOV) was 82.7% and the “Long-term stability, 3 month, -80°C Accuracy [%]” value ([3]; validation standard 2xLLOV) was 86.1%. For the same molecule, the “Long-term stability, 6 weeks, 4°C, without daylight Accuracy [%]” value ([3]; validation standard 2xLLOV) was 81.2%, the “Long-term stability, 1 month, -20°C Accuracy [%]” value ([3]; validation standard LLOV) was 84.7% and the “Long-term stability, 1 month, -80°C Accuracy [%]” value ([3]; validation standard LLOV) was 83.5%. For the same molecule, the “Long-term stability, 2 month, -20°C Accuracy [%]” value ([3]; validation standard LLOV) was 79.9%, the “Long-term stability, 2 month, -80°C Accuracy [%]” value ([3]; validation standard LLOV) was 81.8% and the “Long-term stability, 3 month, -20°C Accuracy [%]” value ([3]; validation standard LLOV) was 79.0%. The “Long-term stability, 3 month, -80°C Accuracy [%]” value ([3]; validation standard LLOV) was 81.6%, the “Long-term stability, 6 weeks, 4°C, without daylight Accuracy [%]” value ([3]; validation standard LLOV) was 75.7% and the “Long-term stability, 1 month, -20°C Accuracy [%]” value ([3]; validation standard MOV) was 85.8%. For the same molecule, the “Long-term stability, 1 month, -80°C Accuracy [%]” value ([3]; validation standard MOV) was 83.9%, the “Long-term stability, 2 month, -20°C Accuracy [%]” value ([3]; validation standard MOV) was 89.5% and the “Long-term stability, 2 month, -80°C Accuracy [%]” value ([3]; validation standard MOV) was 89.3%. For the same molecule, the “Long-term stability, 3 month, -20°C Accuracy [%]” value ([3]; validation standard MOV) was 88.4%, the “Long-term stability, 3 month, -80°C Accuracy [%]” value ([3]; validation standard MOV) was 86.7% and the “Long-term stability, 6 weeks, 4°C, without daylight Accuracy [%]” value ([3]; validation standard MOV) was 92.7%. For the same molecule, the “Long-term stability, 1 month, -20°C Accuracy [%]” value ([3]; validation standard ULOV) was 85.2%, the “Long-term stability, 1 month, -80°C Accuracy [%]” value ([3]; validation standard ULOV) was 81.7% and the “Long-term stability, 2 month, -20°C Accuracy [%]” value ([3]; validation standard ULOV) was 88.3%. The “Long-term stability, 2 month, -80°C Accuracy [%]” value ([3]; validation standard ULOV) was 88.1%, the “Long-term stability, 3 month, -20°C Accuracy [%]” value ([3]; validation standard ULOV) was 84.7% and the “Long-term stability, 3 month, -80°C Accuracy [%]” value ([3]; validation standard ULOV) was 84.8%. The “Long-term stability, 6 weeks, 4°C, without daylight Accuracy [%]” value ([3]; validation standard ULOV) was 86.5%.
For `COc1cc(Nc2c(C#N)cnc3cc(OCCCN4CCN(C)CC4)c(OC)cc23)c(Cl)cc1Cl` [Bosutinib], the “Freeze-Thaw Accuracy [%]” value ([1]; validation standard 2xLLOV) was 89.9%, the “Freeze-Thaw Accuracy [%]” value ([1]; validation standard LLOV) was 102.2% and the “Freeze-Thaw Accuracy [%]” value ([1]; validation standard MOV) was 92.6%. The “Freeze-Thaw Accuracy [%]” value ([1]; validation standard ULOV) was 94.6% and the “cmin” value [4] was 147 ng/mL.
With `CC[C@H](Nc1ncnc2[nH]cnc12)c1nc2cccc(F)c2c(=O)n1-c1ccccc1` [Idelalisib] the “Freeze-Thaw Accuracy [%]” value ([1]; validation standard 2xLLOV) was 98.2%, the “Freeze-Thaw Accuracy [%]” value ([1]; validation standard LLOV) was 110.6% and the “Freeze-Thaw Accuracy [%]” value ([1]; validation standard MOV) was 96.5%. For the same molecule, the “Freeze-Thaw Accuracy [%]” value ([1]; validation standard ULOV) was 101.5%, the “Autosampler (24h, 4°C) Accuracy [%]” value ([2]; validation standard 2xLLOV) was 103.2% and the “Autosampler (72h, 4°C) Accuracy [%]” value ([2]; validation standard 2xLLOV) was 98.6%. For the same molecule, the “Autosampler (24h, 4°C) Accuracy [%]” value ([2]; validation standard LLOV) was 109.4%, the “Autosampler (72h, 4°C) Accuracy [%]” value ([2]; validation standard LLOV) was 109.4% and the “Autosampler (24h, 4°C) Accuracy [%]” value ([2]; validation standard MOV) was 102.6%. For the same molecule, the “Autosampler (72h, 4°C) Accuracy [%]” value ([2]; validation standard MOV) was 97.1%, the “Autosampler (24h, 4°C) Accuracy [%]” value ([2]; validation standard ULOV) was 103.9% and the “Autosampler (72h, 4°C) Accuracy [%]” value ([2]; validation standard ULOV) was 101.4%. The “cmin” value [4] was 318 ng/mL.
With `CO[C@@H]1[C@H](N(C)C(=O)c2ccccc2)C[C@H]2O[C@]1(C)n1c3ccccc3c3c4c(c5c6ccccc6n2c5c31)C(=O)NC4` [Midostaurin] the “Freeze-Thaw Accuracy [%]” value ([1]; validation standard 2xLLOV) was 95.9%, the “Freeze-Thaw Accuracy [%]” value ([1]; validation standard LLOV) was 100.6% and the “Freeze-Thaw Accuracy [%]” value ([1]; validation standard MOV) was 94.6%. For the same molecule, the “Freeze-Thaw Accuracy [%]” value ([1]; validation standard ULOV) was 97.4%, the “Autosampler (24h, 4°C) Accuracy [%]” value ([2]; validation standard 2xLLOV) was 103.3% and the “Autosampler (72h, 4°C) Accuracy [%]” value ([2]; validation standard 2xLLOV) was 103.0%. For the same molecule, the “Autosampler (24h, 4°C) Accuracy [%]” value ([2]; validation standard LLOV) was 109.7%, the “Autosampler (72h, 4°C) Accuracy [%]” value ([2]; validation standard LLOV) was 108.2% and the “Autosampler (24h, 4°C) Accuracy [%]” value ([2]; validation standard MOV) was 101.4%. For the same molecule, the “Autosampler (72h, 4°C) Accuracy [%]” value ([2]; validation standard MOV) was 103.7%, the “Autosampler (24h, 4°C) Accuracy [%]” value ([2]; validation standard ULOV) was 102.8% and the “Autosampler (72h, 4°C) Accuracy [%]” value ([2]; validation standard ULOV) was 97.9%. For the same molecule, the “Long-term stability, 1 month, -20°C Accuracy [%]” value ([3]; validation standard 2xLLOV) was 105.5%, the “Long-term stability, 1 month, -80°C Accuracy [%]” value ([3]; validation standard 2xLLOV) was 106.8% and the “Long-term stability, 2 month, -20°C Accuracy [%]” value ([3]; validation standard 2xLLOV) was 106.0%. The “Long-term stability, 2 month, -80°C Accuracy [%]” value ([3]; validation standard 2xLLOV) was 108.5%, the “Long-term stability, 3 month, -20°C Accuracy [%]” value ([3]; validation standard 2xLLOV) was 97.1% and the “Long-term stability, 3 month, -80°C Accuracy [%]” value ([3]; validation standard 2xLLOV) was 106.8%. The “Long-term stability, 6 weeks, 4°C, without daylight Accuracy [%]” value ([3]; validation standard 2xLLOV) was 94.2%, the “Long-term stability, 1 month, -20°C Accuracy [%]” value ([3]; validation standard LLOV) was 109.4% and the “Long-term stability, 1 month, -80°C Accuracy [%]” value ([3]; validation standard LLOV) was 106.4%. The “Long-term stability, 2 month, -20°C Accuracy [%]” value ([3]; validation standard LLOV) was 106.5%, the “Long-term stability, 2 month, -80°C Accuracy [%]” value ([3]; validation standard LLOV) was 101.2% and the “Long-term stability, 3 month, -20°C Accuracy [%]” value ([3]; validation standard LLOV) was 102.8%. The “Long-term stability, 3 month, -80°C Accuracy [%]” value ([3]; validation standard LLOV) was 112.8%, the “Long-term stability, 6 weeks, 4°C, without daylight Accuracy [%]” value ([3]; validation standard LLOV) was 102.3% and the “Long-term stability, 1 month, -20°C Accuracy [%]” value ([3]; validation standard MOV) was 105.8%. The “Long-term stability, 1 month, -80°C Accuracy [%]” value ([3]; validation standard MOV) was 108.1%, the “Long-term stability, 2 month, -20°C Accuracy [%]” value ([3]; validation standard MOV) was 113.7% and the “Long-term stability, 2 month, -80°C Accuracy [%]” value ([3]; validation standard MOV) was 116.3%. For the same molecule, the “Long-term stability, 3 month, -20°C Accuracy [%]” value ([3]; validation standard MOV) was 102.0%, the “Long-term stability, 3 month, -80°C Accuracy [%]” value ([3]; validation standard MOV) was 102.9% and the “Long-term stability, 6 weeks, 4°C, without daylight Accuracy [%]” value ([3]; validation standard MOV) was 103.5%. The “Long-term stability, 1 month, -20°C Accuracy [%]” value ([3]; validation standard ULOV) was 107.3%, the “Long-term stability, 1 month, -80°C Accuracy [%]” value ([3]; validation standard ULOV) was 103.4% and the “Long-term stability, 2 month, -20°C Accuracy [%]” value ([3]; validation standard ULOV) was 118.6%. For the same molecule, the “Long-term stability, 2 month, -80°C Accuracy [%]” value ([3]; validation standard ULOV) was 111.4%, the “Long-term stability, 3 month, -20°C Accuracy [%]” value ([3]; validation standard ULOV) was 93.8% and the “Long-term stability, 3 month, -80°C Accuracy [%]” value ([3]; validation standard ULOV) was 107.0%. For the same molecule, the “Long-term stability, 6 weeks, 4°C, without daylight Accuracy [%]” value ([3]; validation standard ULOV) was 97.3%, the “Short-time stability (1h, 56°C) Accuracy [%]” value ([5]; validation standard 2xLLOV) was 45.3% and the “Short-time stability (24h, 4°C, without daylight) Accuracy [%]” value ([5]; validation standard 2xLLOV) was 93.5%. For the same molecule, the “Short-time stability (24h, RT, with daylight) Accuracy [%]” value ([5]; validation standard 2xLLOV) was 91.7%, the “Short-time stability (24h, RT, without daylight) Accuracy [%]” value ([5]; validation standard 2xLLOV) was 88.1% and the “Short-time stability (1h, 56°C) Accuracy [%]” value ([5]; validation standard LLOV) was 39.0%. The “Short-time stability (24h, 4°C, without daylight) Accuracy [%]” value ([5]; validation standard LLOV) was 90.3%, the “Short-time stability (24h, RT, with daylight) Accuracy [%]” value ([5]; validation standard LLOV) was 89.5% and the “Short-time stability (24h, RT, without daylight) Accuracy [%]” value ([5]; validation standard LLOV) was 85.7%. The “Short-time stability (1h, 56°C) Accuracy [%]” value ([5]; validation standard MOV) was 41.7%, the “Short-time stability (24h, 4°C, without daylight) Accuracy [%]” value ([5]; validation standard MOV) was 103.7% and the “Short-time stability (24h, RT, with daylight) Accuracy [%]” value ([5]; validation standard MOV) was 88.3%. For the same molecule, the “Short-time stability (24h, RT, without daylight) Accuracy [%]” value ([5]; validation standard MOV) was 91.0%, the “Short-time stability (1h, 56°C) Accuracy [%]” value ([5]; validation standard ULOV) was 37.7% and the “Short-time stability (24h, 4°C, without daylight) Accuracy [%]” value ([5]; validation standard ULOV) was 98.8%. For the same molecule, the “Short-time stability (24h, RT, with daylight) Accuracy [%]” value ([5]; validation standard ULOV) was 89.5% and the “Short-time stability (24h, RT, without daylight) Accuracy [%]” value ([5]; validation standard ULOV) was 88.4%.
In the case of `CC(=O)c1c(C)c2cnc(Nc3ccc(N4CCNCC4)cn3)nc2n(C2CCCC2)c1=O` [Palbociclib], the “Autosampler (24h, 4°C) Accuracy [%]” value ([2]; validation standard 2xLLOV) is reported as 99.9%, the “Autosampler (72h, 4°C) Accuracy [%]” value ([2]; validation standard 2xLLOV) is reported as 100.1% and the “Autosampler (24h, 4°C) Accuracy [%]” value ([2]; validation standard LLOV) is reported as 99.4%. For the same molecule, the “Autosampler (72h, 4°C) Accuracy [%]” value ([2]; validation standard LLOV) was 97.9%, the “Autosampler (24h, 4°C) Accuracy [%]” value ([2]; validation standard MOV) was 101.0% and the “Autosampler (72h, 4°C) Accuracy [%]” value ([2]; validation standard MOV) was 96.9%. The “Autosampler (24h, 4°C) Accuracy [%]” value ([2]; validation standard ULOV) was 103.9% and the “Autosampler (72h, 4°C) Accuracy [%]” value ([2]; validation standard ULOV) was 102.9%.
